Source: EP1640447A1, “BIOACTIVE PEPTIDE-PRODUCING STRAINS OF i ENTEROCOCCUS FAECALIS /i , BIOACTIVE PEPTIDES AND APPLICATIONS THEREOF” (Grupo Leche Pascual S.A., priority 2003, dated 2004)
Marks after values point to notes of the source that are not given here.

Legend:
[1] = tested on: spontaneously hypertensive rats (SHR); assay: Blood pressure (tail cuff) after acute intragastric administration in spontaneously hypertensive rats; assay type: in vivo; settings: Captopril 50 mg/kg; for variation of diastolic blood pressure / variation of systolic blood pressure: mean ± standard error
Description: (§1) Male SHR and WKY rats of 17-20 weeks of age and weight comprised between 250 and 300 g were used, obtained from Charles River Laboratories Espana S.A.. The rats were kept at a stable ambient temperature of 23°C and with 12 hour light-dark cycles, taking water and food at will. The measurement of blood pressure in these animals was carried out by means of a modification of the tail cuff technique, originally disclosed by Buñag (Buñag RD. 1973. J Appl Physiol 34:79). This technique usually allows obtaining only systolic blood pressure (SBP) measurements; however, the equipment used in this study (Le50001 Letica model) allows differentiating the SBP and the diastolic blood pressure (DBP) of the animals, as it automatically provides the digital value of both parameters. For this reason the modification of the SBP and the DBP produced by the acute administration of the fermented milks and the peptides were tested in this study. Before placing the cuff on the tails of the rats, these were exposed to a temperature close to 30°C in order to facilitate the dilation of the caudal artery, and they were lightly anaesthetized with diethyl ether according to the process disclosed by Dietz et al. (Dietz R, Schömig A, Haebara H et al. 1978. Circ Res 43: I98-I106) in order to minimize the effect of stress on the measurement. Furthermore, in order to ensure the reliability of the measurement, the animals were familiarized with the process 2 weeks prior to performing the test in question.
The administration of the products to be tested was performed by means of intragastric probe in a time margin comprised between 9 and 10 am. The SHR rats used for the study had at that time SBP and DBP values comprised respectively between 240 and 290 mm Hg, and between 200 and 250 mm Hg. The WKY rats used for the study had at that time SBP and DBP values comprised respectively between 160 and 200 mm Hg, and between 100 and 140 mm Hg. SBP and DBP measurements were taken periodically in the animals, every 2 hours, up to 8 hours post-administration of the products to be tested; an additional measurement of both variables (SBP and DBP) was taken 24 hours after administration of said products.
In the case of the fermented milks, the supernatant (whey) obtained by centrifugation at 20,000 x g for 10 minutes of the milk fermented and pasteurized at 75°C for 1 minute following the process described in Example 2 was used as an administration product. From the corresponding supernatant a single administration of 5 mL/kg of animal body weight was used.
In the tests with peptide SEQ. ID. NO: 1 a single administration was also performed, and the dose used (2 mg/kg) was equivalent in ACEI activity units to the 5 mL/kg dose of supernatant of the milks fermented by E. faecalis CECT 5727, E. faecalis CECT 5728, E. faecalis CECT 5826 and E. faecalis CECT 5827. […] The most significant results were obtained with the peptide identified by SEQ. ID. NO: 1.
As a negative control (to establish the circadian variation of the SBP and the DBP in probed rats) the measurements obtained in rats that were administered 1 mL of water by intragastric probe were used. As a positive control (to establish the effect on the SBP and the DBP of a prototype ACEI drug, such as Captopril) the measurements of […] obtained in that were administered 50 mg /kg of Captopril by intragastric probe were used. This dose of Captopril was administered to each rat in a volume of 1 mL.
The results obtained were grouped and the mean ± standard error of the mean (SEM) for a minimum of 7 homogeneous tests was obtained. The data from treated animals was contrasted to one another and with the data considered as negative control. […]

Wistar-Kyoto rats (WKY) = assay: Blood pressure (tail cuff) after acute intragastric administration in normotensive Wistar-Kyoto rats; assay type: in vivo; settings: whey 5 mL/kg, Captopril 50 mg/kg, LSD test at each time
Description: as §1, with “Furthermore, in order to ensure the reliability of the measurement, the animals were familiarized with the process 2 weeks prior to performing the test in question.” left out

[2] = Time 2 h after single intragastric administration, whey 5 mL/kg
[3] = Time 4 h after single intragastric administration, whey 5 mL/kg
[4] = Time 6 h after single intragastric administration, whey 5 mL/kg
[5] = Time 8 h after single intragastric administration, whey 5 mL/kg
[6] = Time 24 h after single intragastric administration, whey 5 mL/kg
[7] = single intragastric administration, whey 5 mL/kg, peptide 2 mg/kg

C[C@H](CS)C(=O)N1CCC[C@H]1C(=O)O [Captopril]
time after administration of maximum reduction / smallest values of DBP ([1]; peptide 2 mg/kg, intragastric): 4 h
time after administration of maximum reduction / smallest values of SBP ([1]; whey 5 mL/kg, peptide 2 mg/kg, intragastric): 6 h
variation of diastolic blood pressure [1, 2]: -28.29±2.40^a
variation of systolic blood pressure [1, 2]: -36.08±4.52^a
variation of diastolic blood pressure [1, 3]: -34.90±5.34^a
variation of systolic blood pressure [1, 3]: -51.98±5.36^a
variation of diastolic blood pressure [1, 4]: -28.63±5.77^a
variation of systolic blood pressure [1, 4]: -54.19±5.11^a
variation of diastolic blood pressure [1, 5]: -26.67±7.94^a
variation of systolic blood pressure [1, 5]: -35.44±4.70^a
variation of diastolic blood pressure [1, 6]: 1.37±1.02^a
variation of systolic blood pressure [1, 6]: 1.23±1.49^a
reduction in DBP (in words) [1, 7]: pronounced reduction
reduction in SBP (in words) [1, 7]: pronounced reduction
changes in DBP (Wistar-Kyoto rats (WKY)): no significant differences
changes in SBP (Wistar-Kyoto rats (WKY)): no significant differences
